Legend:
Assay in all cases: relative viability (nuclei count vs DMSO), 5 days (fraction); higher = more cells survive
DM3189 + Pictilisib = compound: C1CN(CCN1)C2=CC=C(C=C2)C3=CN4C(=C(C=N4)C5=CC=NC6=CC=CC=C56)N=C3 [DM3189] + CS(=O)(=O)N1CCN(Cc2cc3nc(-c4cccc5[nH]ncc45)nc(N4CCOCC4)c3s2)CC1 [Pictilisib] (partner 1 µM)
In short: (§1)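 Lung cancer cell lines were seeded in 1536-well plates and dosed by pin tool the next day, with either a single drug or a fixed anchor-drug dose combined with five library-drug doses (not always all listed) spaced in √10 steps. Five days later, one step fixed the cells and stained their nuclei (final 0.05% Triton X-100, 1% formaldehyde, 1 ug/ml Hoechst), and nuclei were counted on 4× images. Relative viability is the nuclei count in treated wells divided by the count in vehicle wells, and each value is the median of duplicate plates.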

DM3189 + Lapatinib = compound: C1CN(CCN1)C2=CC=C(C=C2)C3=CN4C(=C(C=N4)C5=CC=NC6=CC=CC=C56)N=C3 [DM3189] + CS(=O)(=O)CCNCc1ccc(-c2ccc3ncnc(Nc4ccc(OCc5cccc(F)c5)c(Cl)c4)c3c2)o1 [Lapatinib] (partner 2 µM)
In short: as §1

DM3189 + Foretinib = compound: C1CN(CCN1)C2=CC=C(C=C2)C3=CN4C(=C(C=N4)C5=CC=NC6=CC=CC=C56)N=C3 [DM3189] + COc1cc2c(Oc3ccc(NC(=O)C4(C(=O)Nc5ccc(F)cc5)CC4)cc3F)ccnc2cc1OCCCN1CCOCC1 [Foretinib] (partner 0.25 µM)
In short: as §1

DM3189 + Linsitinib = compound: C1CN(CCN1)C2=CC=C(C=C2)C3=CN4C(=C(C=N4)C5=CC=NC6=CC=CC=C56)N=C3 [DM3189] + C[C@]1(O)C[C@@H](c2nc(-c3ccc4ccc(-c5ccccc5)nc4c3)c3c(N)nccn32)C1 [Linsitinib] (partner 1 µM)
In short: as §1

DM3189 + Phenformin = compound: C1CN(CCN1)C2=CC=C(C=C2)C3=CN4C(=C(C=N4)C5=CC=NC6=CC=CC=C56)N=C3 [DM3189] + N=C(N)NC(=N)NCCc1ccccc1 [Phenformin] (partner 250 µM)
In short: as §1

DM3189 + Olaparib = compound: C1CN(CCN1)C2=CC=C(C=C2)C3=CN4C(=C(C=N4)C5=CC=NC6=CC=CC=C56)N=C3 [DM3189] + O=C(c1cc(Cc2n[nH]c(=O)c3ccccc23)ccc1F)N1CCN(C(=O)C2CC2)CC1 [Olaparib] (partner 8 µM)
In short: as §1

DM3189 + Navitoclax = compound: C1CN(CCN1)C2=CC=C(C=C2)C3=CN4C(=C(C=N4)C5=CC=NC6=CC=CC=C56)N=C3 [DM3189] + CC1(C)CCC(c2ccc(Cl)cc2)=C(CN2CCN(c3ccc(C(=O)NS(=O)(=O)c4ccc(N[C@H](CCN5CCOCC5)CSc5ccccc5)c(S(=O)(=O)C(F)(F)F)c4)cc3)CC2)C1 [Navitoclax] (partner 0.5 µM)
In short: as §1

DM3189 + Decitabine = compound: C1CN(CCN1)C2=CC=C(C=C2)C3=CN4C(=C(C=N4)C5=CC=NC6=CC=CC=C56)N=C3 [DM3189] + Nc1ncn([C@H]2C[C@H](O)[C@@H](CO)O2)c(=O)n1 [Decitabine] (partner 2 µM)
In short: as §1

DM3189 + Alpelisib = compound: C1CN(CCN1)C2=CC=C(C=C2)C3=CN4C(=C(C=N4)C5=CC=NC6=CC=CC=C56)N=C3 [DM3189] + Cc1nc(NC(=O)N2CCC[C@H]2C(N)=O)sc1-c1ccnc(C(C)(C)C(F)(F)F)c1 [Alpelisib] (partner 2 µM)
In short: as §1

DM3189 + Crizotinib = compound: C1CN(CCN1)C2=CC=C(C=C2)C3=CN4C(=C(C=N4)C5=CC=NC6=CC=CC=C56)N=C3 [DM3189] + C[C@@H](Oc1cc(-c2cnn(C3CCNCC3)c2)cnc1N)c1c(Cl)ccc(F)c1Cl [Crizotinib] (partner 1 µM)
In short: as §1

DM3189 = compound: C1CN(CCN1)C2=CC=C(C=C2)C3=CN4C(=C(C=N4)C5=CC=NC6=CC=CC=C56)N=C3 [DM3189]
In short: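 Vehicle-anchored 1536-well plates of lung cancer cell lines, held overnight at 37 °C, were pinned with five library-drug doses (not always all listed) spaced by √10. No medium change followed over the next 5 days, after which the cells were fixed, permeabilised and Hoechst-stained together and imaged at 4×. Nuclei were counted with MetaXpress, and viability is treated-well nuclei over vehicle-well nuclei, taken as a median across plates. Plates passed with control CV below 25% and at least one doubling.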

Cell Line A549 has a relative viability (DM3189 + Pictilisib; first compound 0.08 µM) of 0.495, a relative viability (DM3189 + Pictilisib; first compound 0.253 µM) of 0.481 and a relative viability (DM3189 + Pictilisib; first compound 0.8 µM) of 0.48. For the same cell line, the relative viability (DM3189 + Pictilisib; first compound 2.53 µM) was 0.357, the relative viability (DM3189 + Lapatinib; first compound 0.08 µM) was 0.916 and the relative viability (DM3189 + Lapatinib; first compound 0.253 µM) was 1.01. For the same cell line, the relative viability (DM3189 + Lapatinib; first compound 0.8 µM) was 1.01, the relative viability (DM3189 + Lapatinib; first compound 2.53 µM) was 1 and the relative viability (DM3189 + Foretinib; first compound 0.08 µM) was 0.989. The relative viability (DM3189 + Foretinib; first compound 0.253 µM) was 0.95, the relative viability (DM3189 + Foretinib; first compound 0.8 µM) was 0.998 and the relative viability (DM3189 + Foretinib; first compound 2.53 µM) was 0.976. It also gave a relative viability (DM3189 + Linsitinib; first compound 0.08 µM) of 0.654, a relative viability (DM3189 + Linsitinib; first compound 0.253 µM) of 0.593 and a relative viability (DM3189 + Linsitinib; first compound 0.8 µM) of 0.549. It also gave a relative viability (DM3189 + Linsitinib; first compound 2.53 µM) of 0.545, a relative viability (DM3189 + Phenformin; first compound 0.08 µM) of 0.151 and a relative viability (DM3189 + Phenformin; first compound 0.253 µM) of 0.162. The relative viability (DM3189 + Phenformin; first compound 0.8 µM) was 0.206, the relative viability (DM3189 + Phenformin; first compound 2.53 µM) was 0.136 and the relative viability (DM3189 + Olaparib; first compound 0.08 µM) was 0.286. It also gave a relative viability (DM3189 + Olaparib; first compound 0.253 µM) of 0.332, a relative viability (DM3189 + Olaparib; first compound 0.8 µM) of 0.236 and a relative viability (DM3189 + Olaparib; first compound 2.53 µM) of 0.29. For the same cell line, the relative viability (DM3189 + Navitoclax; first compound 0.08 µM) was 1.23, the relative viability (DM3189 + Navitoclax; first compound 0.253 µM) was 1.27 and the relative viability (DM3189 + Navitoclax; first compound 0.8 µM) was 1.28. It also gave a relative viability (DM3189 + Navitoclax; first compound 2.53 µM) of 1.3, a relative viability (DM3189 + Decitabine; first compound 0.08 µM) of 0.26 and a relative viability (DM3189 + Decitabine; first compound 0.253 µM) of 0.282. For the same cell line, the relative viability (DM3189 + Decitabine; first compound 0.8 µM) was 0.251, the relative viability (DM3189 + Decitabine; first compound 2.53 µM) was 0.325 and the relative viability (DM3189 + Alpelisib; first compound 0.08 µM) was 0.892. It also gave a relative viability (DM3189 + Alpelisib; first compound 0.253 µM) of 0.806, a relative viability (DM3189 + Alpelisib; first compound 0.8 µM) of 0.812 and a relative viability (DM3189 + Alpelisib; first compound 2.53 µM) of 0.956. The relative viability (DM3189 + Crizotinib; first compound 0.08 µM) was 0.86, the relative viability (DM3189 + Crizotinib; first compound 0.253 µM) was 0.763 and the relative viability (DM3189 + Crizotinib; first compound 0.8 µM) was 0.755. It also gave a relative viability (DM3189 + Crizotinib; first compound 2.53 µM) of 0.705, a relative viability (DM3189; 0.08 µM) of 1.06 and a relative viability (DM3189; 0.253 µM) of 1.06. The relative viability (DM3189; 0.8 µM) was 0.993 and the relative viability (DM3189; 2.53 µM) was 1.08.

Reference: the supplement of paper PMC10307832
